Test results reported in US10975082B2, “Inhibitor of FLT3 kinase and use thereof” (PRECEDO PHARMACEUTICALS CO., LTD, priority 2016, dated 2021).

Experiments:
[1] = system: BaF3-FLT3 [ITD]; assay: Cell proliferation, Cell Titer-Glo, GI50; format: cell-based; details: Mus musculus, Ba/F3 FLT3-ITD, 72 hours
Experimental: (§1) Compounds of the invention were evaluated for their inhibitory effects on proliferation of cancer cells as well as the selectivity thereof by testing their effects on growth of cancer cells (Table 2).
(§2) Mouse BaF3-FLT3[ITD] (stably expressing FLT3[ITD] mutant activated kinase), mouse tel-BaF3-FLT3-D835Y (stably expressing FLT3[D835Y]mutant activated kinase), mouse tel-BaF3-BMX (stably expressing BMX kinase), mouse tel-FLT3-BaF3 (stably expressing FLT3 kinase), mouse BaF3-FLT3-ITD-D835Y (stably expressing FLT3[ITD+D835Y]mutant activated kinase), mouse BaF3-FLT3-ITD-F691L (stably expressing FLT3[ITD+F691L]mutant activated kinase), mouse tel-cKIT-BaF3 (stably expressing cKIT kinase), mouse BaF3-tel-cKit-N882K (stably expressing cKIT-N882K mutant activated kinase), mouse BaF3-tel-cKit-D816V (stably expressing cKIT-D816V mutant activated kinase), mouse BaF3-tel-cKit-T670I (stably expressing cKIT-T670I mutant activated kinase), mouse TPR-MET-BaF3 (stably expressing MET kinase), mouse tel-BaF3-EGFR (stably expressing EGFR kinase), mouse BaF3-FL-EGFR-L858R (stably expressing EGFR[L858R]mutant activated kinase), mouse tel-BaF3-BLK (stably expressing BLK kinase), mouse tel-JAK1-BaF3 (stably expressing JAK1 kinase) and the like were also used (see Table 2 for details). The above cell lines were all constructed by our laboratory according to the following method: the kinase region sequences of human FLT3/ITD, FLT3 D835Y, BMX, FLT3, FLT3[ITD+D835Y], FLT3[ITD+F691L], cKIT, cKIT [N882K], cKIT [D816V], cKIT [T670I], MET, EGFR, EGFR [L858R], BLK, JAK1, FLT3[K663Q], FLT3[D835V], FLT3[D835H], PDGFRa, PEGFRb, VEGFR2, JAK2, JAK3, ABL were amplified by PCR, and inserted into MSCV-Puro vectors with N-terminal TEL or TPR fragments (purchased from Clontech), respectively. The vectors were stably transfected into mouse BaF3 cells (purchased from ATCC) by means of retrovirus, and the growth factor IL-3 were removed, eventually obtaining cell lines that are transferred protein (FLT3/ITD, FLT3 D835Y, BMX, FLT3, FLT3[ITD D835Y], FLT3[ITD+F691L], cKIT, cKIT [N882K], cKIT [D816V], cKIT [T670I], MET, EGFR, EGFR [L858R], BLK, JAK1, FLT3[K663Q], FLT3[D835V], FLT3[D835H], PDGFRa, PEGFRb, VEGFR2, JAK2, JAK3, ABL)-dependent.
(§3) Then the number of viable cells was determined by quantification of ATP in living cells using Cell Titer-Glo® (Promega, the USA) Luminescent Cell Viability Assay kit and thereby GI50 was calculated.

[2] = system: BaF3-TEL-FLT3 [K663Q]; assay: Cell proliferation, Cell Titer-Glo, GI50; format: cell-based; details: Mus musculus, 72 hours
Experimental: as §1, §2, §3

[3] = system: BaF3-TEL-cKIT; assay: Cell proliferation, Cell Titer-Glo, GI50; format: cell-based; details: Mus musculus, 72 hours
Experimental: as §1, §2, §3

[4] = system: BaF3-TEL-FLT3 [D835Y]; assay: Cell proliferation, Cell Titer-Glo, GI50; format: cell-based; details: Mus musculus, 72 hours
Experimental: as §1, §2, §3

[5] = system: BaF3-TEL-FLT3; assay: Cell proliferation, Cell Titer-Glo, GI50; format: cell-based; details: Mus musculus; BaF3-TEL-FLT3, 72 hours
Experimental: as §1, §2, §3

[6] = system: BaF3-TEL-FLT3 [D835V]; assay: Cell proliferation, Cell Titer-Glo, GI50; format: cell-based; details: Mus musculus, 72 hours
Experimental: as §1, §2, §3

[7] = system: BaF3-TEL-cKit [N882K]; assay: Cell proliferation, Cell Titer-Glo, GI50; format: cell-based; details: Mus musculus, 72 hours
Experimental: as §1, §2, §3

[8] = system: BaF3-TEL-cKit [D816V]; assay: Cell proliferation, Cell Titer-Glo, GI50; format: cell-based; details: Mus musculus, 72 hours
Experimental: as §1, §2, §3

[9] = system: BaF3-FLT3 [ITD + D835Y]; assay: Cell proliferation, Cell Titer-Glo, GI50; format: cell-based; details: Mus musculus, Ba/F3 FLT3-ITD, 72 hours
Experimental: as §1, §2, §3

[10] = system: MOLM-14; assay: Cancer cell proliferation, Cell Titer-Glo, GI50; format: cell-based; details: Homo sapiens; MOLM-14, 72 hours
Experimental: as §1
(§4) In this example the following cells were selected: human acute myeloid leukemia cells MV-4-11 (expressing FLT3[ITD] mutant gene), human acute myeloid leukemia cells MOLM-13 (expressing FLT3[ITD] mutant gene and wild-type FLT3 gene), human acute myeloid leukemia cells MOLM-14 (expressing FLT3[ITD] mutant gene and wild-type FLT3 gene), human acute myeloid leukemia cells OCI-AML3 (expressing FLT3[A680V] mutant gene), human acute myeloid leukemia cells U937 (expressing wild-type FLT3 gene), and mouse pro-B cells BaF3, and the above cells were purchased from ATCC.
as §3

[11] = system: U937; assay: Cancer cell proliferation, Cell Titer-Glo, GI50; format: cell-based; details: Homo sapiens, U-937; U937, 72 hours
Experimental: as §1, §4, §3

[12] = system: MV-4-11; assay: Cancer cell proliferation, Cell Titer-Glo, GI50; format: cell-based; details: Homo sapiens, MV4-11; MV-4-11, 72 hours
Experimental: as §1, §4, §3

[13] = system: BaF3; assay: Cell proliferation, Cell Titer-Glo, GI50; format: cell-based; details: Mus musculus; BaF3, 72 hours
Experimental: as §1, §4, §3

[14] = system: MOLM-13, MOLM-14 and MV-4-11 cell lines; assay: Cell cycle distribution by flow cytometry (PI); format: cell-based, human; details: MOLM-13, MOLM-14 and MV-4-11, 12 or 24 hours; Compound 1 0.01-0.1 μM, AC220 0.1 μM

SMILES	GI50 [1]	GI50 [2]	GI50 [3]	GI50 [4]	GI50 [5]	GI50 [6]	GI50 [7]	GI50 [8]	GI50 [9]	GI50 [10]	GI50 [11]	GI50 [12]	GI50 [13]	cell cycle distribution [14]
CC(C)(C)c1cc(NC(=O)Nc2ccc(-n3nc(-c4ccc(N5CCOCC5)nc4)c4c(N)ncnc43)cc2)no1 [Compound 28, 1-(4-(4-amino-3-(6-morpholinopyridin-3-yl)-1H-pyrazolo[3,4-d]pyrimidin-1-yl)phenyl)-3-(5-(tert-butyl)isoxazol-3-yl)urea]	2 nM	> 10 µM	41 nM	3 nM	4 nM	–	–	–	–	2 nM	> 10 µM	1 nM	6.9 µM	–
CC(C)CNC(=O)Nc1ccc(-n2nc(-c3ccc(OCCN4CCOCC4)cc3)c3c(N)ncnc32)cc1 [Compound 4, 1-(4-(4-amino-3-(4-(2-morpholinoethoxy)phenyl)-1H-pyrazolo[3,4-d]pyrimidin-1-yl)phenyl)-3-isobutylurea]	1100 nM	> 10 µM	> 10000 nM	> 10000 nM	5400 nM	> 10000 nM	> 10000 nM	> 10 µM	> 10000 nM	2500 nM	> 10 µM	2800 nM	> 10 µM	–
CC(C)(C)c1cc(NC(=O)Nc2ccc(-n3nc(-c4cccnc4)c4c(N)ncnc43)cc2)no1 [Compound 26, 1-(4-(4-amino-3-(pyridin-3-yl)-1H-pyrazolo[3,4-d]pyrimidin-1-yl)phenyl)-3-(5-(tert-butyl)isoxazol-3-yl)urea]	0.7 nM	> 10 µM	38 nM	610 nM	1 nM	20 nM	29 nM	7.6 µM	610 nM	1 nM	> 10 µM	< 0.3 nM	> 10 µM	–
CC(C)(C)c1ccc(NC(=O)Nc2ccc(-n3nc(-c4ccc(OCCN5CCOCC5)cc4)c4c(N)ncnc43)cc2)cc1 [Compound 10, 1-(4-(4-amino-3-(4-(2-morpholinoethoxy)phenyl)-1H-pyrazolo[3,4-d]pyrimidin-1-yl)phenyl)-3-(4-(tert-butyl)phenyl)urea]	24 nM	> 10 µM	990 nM	4400 nM	190 nM	4500 nM	1100 nM	4.4 µM	4400 nM	81 nM	8.5 µM	63 nM	> 10 µM	–
CC(C)(C)c1cc(NC(=O)Nc2ccc(-c3cn4c(n3)sc3cc(OCCN5CCOCC5)ccc34)cc2)no1 [AC220, reference compound]	–	–	–	–	–	–	–	–	–	–	–	–	–	similar

Further lines, with some results ahead:

GI50 [1]	GI50 [2]	GI50 [3]	GI50 [4]	GI50 [5]	GI50 [6]	GI50 [7]	GI50 [8]	GI50 [9]	GI50 [10]	GI50 [11]	GI50 [12]	GI50 [13]	SMILES	cell cycle distribution [14]
1 nM	> 10 µM	120 nM	600 nM	2 nM	22 nM	51 nM	> 10 µM	600 nM	1 nM	> 10 µM	0.6 nM	> 10 µM	CC(C)(C)c1cc(NC(=O)Nc2ccc(-n3nc(-c4ccc(NS(C)(=O)=O)cc4)c4c(N)ncnc43)cc2)no1 [Compound 27]	–
100 nM	3.7 µM	3500 nM	1300 nM	320 nM	1700 nM	3300 nM	8.3 µM	1300 nM	130 nM	9.2 µM	82 nM	3.8 µM	CN(C)CCNC(=O)Nc1ccc(-n2nc(-c3ccc(OCCN4CCOCC4)cc3)c3c(N)ncnc32)cc1 [Compound 5, 1-(4-(4-amino-3-(4-(2-morpholinoethoxy)phenyl)-1H-pyrazolo[3,4-d]pyrimidin-1-yl)phenyl)-3-(2-(dimethylamino)ethyl)urea]	–
3 nM	5.4 µM	140 nM	1600 nM	12 nM	210 nM	96 nM	4 µM	1600 nM	3 nM	2.4 µM	3 nM	3 µM	Nc1ncnc2c1c(-c1ccc(OCCN3CCOCC3)cc1)nn2-c1ccc(NC(=O)Nc2ccc(Cl)c(C(F)(F)F)c2)cc1 [Compound 12, 1-(4-(4-amino-3-(4-(2-morpholinoethoxy)phenyl)-1H-pyrazolo[3,4-d]pyrimidin-1-yl)phenyl)-3-(4-chloro-3-(trifluoromethyl)phenyl)urea]	–
0.9 nM	1.6 µM	40 nM	240 nM	2 nM	8 nM	9 nM	1.9 µM	240 nM	< 0.3 nM	1.7 µM	< 0.3 nM	2.5 µM	CCN1CCN(Cc2ccc(-c3nn(-c4ccc(NC(=O)Nc5cc(C(C)(C)C)on5)cc4)c4ncnc(N)c34)cc2)CC1 [Compound 20, 1-(4-(4-amino-3-(4-((4-ethylpiperazin-1-yl)methyl)phenyl)-1H-pyrazolo[3,4-d]pyrimidin-1-yl)phenyl)-3-(5-(tert-butyl)isoxazol-3-yl)urea]	–
–	5.4 µM	12 nM	1 nM	< 0.3 nM	–	–	–	–	< 0.3 nM	4.1 µM	< 0.3 nM	5.9 µM	CC(C)(C)c1cc(NC(=O)Nc2ccc(-n3nc(-c4ccc(CN5CCOCC5)cc4)c4c(N)ncnc43)cc2)no1 [Compound 23, 1-(4-(4-amino-3-(4-(morpholinomethyl)phenyl)-1H-pyrazolo[3,4-d]pyrimidin-1-yl)phenyl)-3-(5-(tert-butyl)isoxazol-3-yl)urea]	–
